Results taken from paper PMC11274654 (Biomedicines, 2024).

system: Rat Calvarial Osteoblasts (RCOs); assay: ALP assay (osteoblast differentiation) in rat calvarial osteoblasts; assay type: cell-based; details: 48 h
Procedure: Sequential digestion was performed to isolate calvarial osteoblast cells from neonatal rat pups. Briefly, calvariae were harvested from ten to twelve 1–2-day old rat pups, cleaned, and subjected to five sequential enzymatic digestions (0.1% dispase and 0.1% collagenase I) of 10–15 min each, followed by culturing of the harvested cells in α-MEM supplemented with 10% FBS [22].
RCOs were seeded in 24-well plates (1 × 10^4 cells/well), and the cells were treated for 48 h in osteoblast differentiation media (α-MEM supplemented with 10 mM β-glycerophosphate and 50 μg/mL ascorbic acid) with the imidazole group of chemicals (10^−11 M–10^−6 M).
A total of 2 mg/mL of para-Nitrophenyl phosphate in diethanolamine buffer was used to measure the ALP activity at a 405 nm wavelength.

| Structure (SMILES) | Activity in ALP Assay (Positive/Negative) | Effect on ALP activity compared to the control (vehicle) |
| --- | --- | --- |
| O=C(Cn1ccnc1[N+](=O)[O-])NCCO [Etanidazole] | Positive | significantly increased |
| Cc1ncc([N+](=O)[O-])n1CC(O)CCl (stereo not drawn) [Ornidazole] | Negative | no effect |
| Cn1c([N+](=O)[O-])cnc1COC(N)=O [Ronidazole] | Negative | no effect |
| Cc1ncc([N+](=O)[O-])n1CC(C)O (stereo not drawn) [Secnidazole] | Negative | no effect |
| CCS(=O)(=O)CCn1c([N+](=O)[O-])cnc1C [Tinidazole] | Negative | no effect |

same assay, conditions: Rattus norvegicus, Calvarial osteoblast, 48 h in osteoblast differentiation media

| EC50 | Structure (SMILES) |
| --- | --- |
| 0.4 µM | O=C(Cn1ccnc1[N+](=O)[O-])NCCO [Etanidazole] |
| > 10 µM | Cc1ncc([N+](=O)[O-])n1CC(O)CCl (stereo not drawn) [Ornidazole] |
| > 10 µM | Cn1c([N+](=O)[O-])cnc1COC(N)=O [Ronidazole] |
| > 10 µM | Cc1ncc([N+](=O)[O-])n1CC(C)O (stereo not drawn) [Secnidazole] |
| > 10 µM | CCS(=O)(=O)CCn1c([N+](=O)[O-])cnc1C [Tinidazole] |
